Assay results: patent US20080234262A1 (Wyeth, priority 2007, published 2008)

How the values were obtained:
prostate line LNCap = experiment: In vitro cell culture growth assay (MTS), LNCap; type: cell-based, human; details: Homo sapiens, LNCaP, 72 h, LNCap cells, three days after drug treatment;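 further: viable cell density read by absorbance at 490 nm, growth expressed as percent of vehicle-treated cells on the same plate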
breast line MDA468 = experiment: In vitro cell culture growth assay (MTS), MDA468; type: cell-based, human; details: Homo sapiens, 72 h, MDA468 cells, three days after drug treatment
Outline: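 Three-day drug treatment starting 1 day post-plating; viable cells quantified via MTS metabolism (A490); effect normalised to in-plate vehicle controls as % growth.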

PI3K = PI3K (Homo sapiens, UniProt P42336); experiment: Fluorescence polarization assay for PI3K; type: biochemical; details: PI3Kα; read-out: PI3Kα IC50;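 further: PI3K kinase reaction on PIP2 with ATP, 30-60 min, product sensed by GST-GRP with red probe in fluorescence polarization (mP), controls without enzyme and at zero time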
PI3K, sequence (P42336 whole entry): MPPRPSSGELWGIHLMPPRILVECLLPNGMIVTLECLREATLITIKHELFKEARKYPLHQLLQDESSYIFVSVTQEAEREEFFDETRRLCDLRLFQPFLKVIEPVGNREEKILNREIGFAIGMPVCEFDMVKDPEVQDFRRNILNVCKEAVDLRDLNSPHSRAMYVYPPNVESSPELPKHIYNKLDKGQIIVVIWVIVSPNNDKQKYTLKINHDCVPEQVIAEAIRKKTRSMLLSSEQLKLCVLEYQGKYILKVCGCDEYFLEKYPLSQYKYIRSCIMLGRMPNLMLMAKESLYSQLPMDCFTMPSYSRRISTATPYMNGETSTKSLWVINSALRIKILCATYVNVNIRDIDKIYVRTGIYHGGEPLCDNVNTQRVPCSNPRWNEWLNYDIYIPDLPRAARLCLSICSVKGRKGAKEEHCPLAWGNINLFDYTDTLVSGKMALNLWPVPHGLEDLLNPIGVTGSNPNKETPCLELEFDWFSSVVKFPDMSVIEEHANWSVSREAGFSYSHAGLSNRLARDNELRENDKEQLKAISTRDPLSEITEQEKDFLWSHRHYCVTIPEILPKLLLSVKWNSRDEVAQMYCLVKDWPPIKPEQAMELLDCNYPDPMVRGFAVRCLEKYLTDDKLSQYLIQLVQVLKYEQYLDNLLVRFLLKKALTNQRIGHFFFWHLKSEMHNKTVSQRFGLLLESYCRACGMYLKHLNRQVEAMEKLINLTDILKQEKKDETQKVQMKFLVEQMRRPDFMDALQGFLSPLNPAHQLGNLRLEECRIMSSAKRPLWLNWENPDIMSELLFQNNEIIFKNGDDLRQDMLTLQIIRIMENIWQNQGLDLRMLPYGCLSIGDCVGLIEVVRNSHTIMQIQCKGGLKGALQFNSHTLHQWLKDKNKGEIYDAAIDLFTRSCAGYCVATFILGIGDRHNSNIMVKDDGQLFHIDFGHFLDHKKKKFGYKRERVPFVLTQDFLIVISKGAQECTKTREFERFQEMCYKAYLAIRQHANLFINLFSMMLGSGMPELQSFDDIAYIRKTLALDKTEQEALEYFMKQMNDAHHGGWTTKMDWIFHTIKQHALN
PI3K, sequence (P27986 whole entry partner): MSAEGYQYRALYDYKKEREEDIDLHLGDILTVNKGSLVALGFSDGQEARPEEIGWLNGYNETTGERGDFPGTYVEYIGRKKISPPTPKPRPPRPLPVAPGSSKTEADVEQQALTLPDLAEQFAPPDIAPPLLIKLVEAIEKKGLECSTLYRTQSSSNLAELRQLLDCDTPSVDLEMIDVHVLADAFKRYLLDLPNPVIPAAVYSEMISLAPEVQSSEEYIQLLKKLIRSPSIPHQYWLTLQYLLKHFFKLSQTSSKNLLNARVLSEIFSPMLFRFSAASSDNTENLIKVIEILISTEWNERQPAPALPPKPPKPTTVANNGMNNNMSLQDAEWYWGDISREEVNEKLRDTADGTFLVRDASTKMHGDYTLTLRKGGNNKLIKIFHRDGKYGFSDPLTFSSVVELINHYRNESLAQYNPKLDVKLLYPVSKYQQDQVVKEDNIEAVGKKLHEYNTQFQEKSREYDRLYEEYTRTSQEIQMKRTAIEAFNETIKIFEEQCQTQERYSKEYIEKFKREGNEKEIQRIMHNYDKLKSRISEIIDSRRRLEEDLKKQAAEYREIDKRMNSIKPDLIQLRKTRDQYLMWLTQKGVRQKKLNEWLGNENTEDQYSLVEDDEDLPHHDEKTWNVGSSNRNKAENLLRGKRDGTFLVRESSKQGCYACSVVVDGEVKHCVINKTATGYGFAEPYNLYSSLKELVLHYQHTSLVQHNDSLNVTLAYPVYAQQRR

| Compound | IC50 (prostate line LNCap) [nM] | IC50 (breast line MDA468) [nM] | IC50 (PI3K) [nM] |
| --- | --- | --- | --- |
| CNC(=O)Nc1ccc(-c2nc(N3CCOCC3)c3cnn(C4CCN(C(=O)N5CCN(C)CC5)CC4)c3n2)cc1 [Compound 578, 1-methyl-3-[4-(1-{1-[(4-methylpiperazin-1-yl)carbonyl]piperidin-4-yl}-4-morpholin-4-yl-1H-pyrazolo[3,4-d]pyrimidin-6-yl)phenyl]urea] | 400 | 700 | 71 |
| CNC(=O)Nc1ccc(-c2nc(N3CCOCC3)c3cnn(C4CCN(C(=O)Nc5cccnc5)CC4)c3n2)cc1 [Compound 579, 4-(6-{4-[(methylcarbamoyl)amino]phenyl}-4-morpholin-4-yl-1H-pyrazolo[3,4-d]pyrimidin-1-yl)-N-pyridin-3-ylpiperidine-1-carboxamide] | 3000 | 2500 | 30 |
| CNC(=O)Nc1ccc(-c2nc(N3CCOCC3)c3cnn(C4CCN(C(=O)c5ccccc5)CC4)c3n2)cc1 [Compound 580, 1-{4-[1-(1-benzoylpiperidin-4-yl)-4-morpholin-4-yl-1H-pyrazolo[3,4-d]pyrimidin-6-yl]phenyl}-3-methylurea] | < 27 | 27 | 63 |
| CNC(=O)Nc1ccc(-c2nc(N3CCOCC3)c3cnn(C4CCNCC4)c3n2)cc1 [Compound 584, 1-methyl-3-[4-(4-morpholin-4-yl-1-piperidin-4-yl-1H-pyrazolo[3,4-d]pyrimidin-6-yl)phenyl]urea] | 500 | 1300 | 22 |
| O=C(Nc1ccccc1)Nc1ccc(-c2nc(N3CCOCC3)c3cnn(C4CCN(Cc5cccnc5)CC4)c3n2)cc1 [Compound 586, 1-(4-{4-morpholin-4-yl-1-[1-(pyridin-3-ylmethyl)piperidin-4-yl]-1H-pyrazolo[3,4-d]pyrimidin-6-yl}phenyl)-3-phenylurea] | 31 | 220 | 11 |
| O=C(Nc1ccncc1)Nc1ccc(-c2nc(N3CCOCC3)c3cnn(C4CCN(Cc5cccnc5)CC4)c3n2)cc1 [Compound 587, 1-(4-{4-morpholin-4-yl-1-[1-(pyridin-3-ylmethyl)piperidin-4-yl]-1H-pyrazolo[3,4-d]pyrimidin-6-yl}phenyl)-3-pyridin-4-ylurea] | 28 | 120 | 12 |
| O=C(Nc1ccc(-c2nc(N3CCOCC3)c3cnn(C4CCN(Cc5cccnc5)CC4)c3n2)cc1)Nc1ccccn1 [Compound 588, 1-(4-{4-morpholin-4-yl-1-[1-(pyridin-3-ylmethyl)piperidin-4-yl]-1H-pyrazolo[3,4-d]pyrimidin-6-yl}phenyl)-3-pyridin-2-ylurea] | 330 | 1800 | 90 |
| CNCCNC(=O)Nc1ccc(-c2nc(N3CCOCC3)c3cnn(C4CCN(Cc5cccnc5)CC4)c3n2)cc1 [Compound 589, 1-[2-(methylamino)ethyl]-3-(4-{4-morpholin-4-yl-1-[1-(pyridin-3-ylmethyl)piperidin-4-yl]-1H-pyrazolo[3,4-d]pyrimidin-6-yl}phenyl)urea] | 1200 | 1100 | 29 |
| O=C(Nc1ccncc1)Nc1ccc(-c2nc(N3CCOCC3)c3cnn(C4CCN(C(=O)c5cccnc5)CC4)c3n2)cc1 [Compound 591, 1-(4-{4-morpholin-4-yl-1-[1-(pyridin-3-ylcarbonyl)piperidin-4-yl]-1H-pyrazolo[3,4-d]pyrimidin-6-yl}phenyl)-3-pyridin-4-ylurea] | 27 | < 27 | 15 |
| O=C(Nc1ccc(-c2nc(N3CCOCC3)c3cnn(C4CCN(C(=O)c5cccnc5)CC4)c3n2)cc1)Nc1ccccn1 [Compound 592, 1-(4-{4-morpholin-4-yl-1-[1-(pyridin-3-ylcarbonyl)piperidin-4-yl]-1H-pyrazolo[3,4-d]pyrimidin-6-yl}phenyl)-3-pyridin-2-ylurea] | 95 | 700 | 260 |
| CNCCNC(=O)Nc1ccc(-c2nc(N3CCOCC3)c3cnn(C4CCN(C(=O)c5cccnc5)CC4)c3n2)cc1 [Compound 593, 1-[2-(methylamino)ethyl]-3-(4-{4-morpholin-4-yl-1-[1-(pyridin-3-ylcarbonyl)piperidin-4-yl]-1H-pyrazolo[3,4-d]pyrimidin-6-yl}phenyl)urea] | 5000 | 9000 | 45 |
| Nc1ccc(-c2nc(N3CCOCC3)c3cnn(C4CCN(Cc5ccccc5)CC4)c3n2)cc1F [Compound 594, 4-[1-(1-benzylpiperidin-4-yl)-4-morpholin-4-yl-1H-pyrazolo[3,4-d]pyrimidin-6-yl]-2-fluoroaniline] | 2000 | 4000 | 1650 |
| CCNC(=O)Nc1ccc(-c2nc(N3CCOCC3)c3cnn(C4CCN(Cc5ccccc5)CC4)c3n2)cc1F [Compound 596, 1-{4-[1-(1-benzylpiperidin-4-yl)-4-morpholin-4-yl-1H-pyrazolo[3,4-d]pyrimidin-6-yl]-2-fluorophenyl}-3-ethylurea] | 230 | 2500 | 485 |
| CNC(=O)Nc1ccc(-c2nc(N3CCOCC3)c3cnn(C4CCN(Cc5cccnc5)CC4)c3n2)cc1F [Compound 597, 1-(2-fluoro-4-{4-morpholin-4-yl-1-[1-(pyridin-3-ylmethyl)piperidin-4-yl]-1H-pyrazolo[3,4-d]pyrimidin-6-yl}phenyl)-3-methylurea] | 27 | 180 | 246 |
| O=C(Nc1ccccc1)Nc1ccc(-c2nc(N3CCOCC3)c3cnn(C4CCN(Cc5cccnc5)CC4)c3n2)cc1F [Compound 598, 1-(2-fluoro-4-{4-morpholin-4-yl-1-[1-(pyridin-3-ylmethyl)piperidin-4-yl]-1H-pyrazolo[3,4-d]pyrimidin-6-yl}phenyl)-3-phenylurea] | 70 | 360 | 41 |
| O=C(Nc1ccncc1)Nc1ccc(-c2nc(N3CCOCC3)c3cnn(C4CCN(Cc5cccnc5)CC4)c3n2)cc1F [Compound 599, 1-(2-fluoro-4-{4-morpholin-4-yl-1-[1-(pyridin-3-ylmethyl)piperidin-4-yl]-1H-pyrazolo[3,4-d]pyrimidin-6-yl}phenyl)-3-pyridin-4-ylurea] | < 27 | 82 | 34 |
| CNC(=O)Nc1ccc(-c2nc(N3CCOCC3)c3cnn(C4CCN(C(=O)c5ccccc5Cl)CC4)c3n2)cc1 [Compound 601, 1-(4-{1-[1-(2-chlorobenzoyl)piperidin-4-yl]-4-morpholin-4-yl-1H-pyrazolo[3,4-d]pyrimidin-6-yl}phenyl)-3-methylurea] | < 27 | < 27 | 79 |
| CNC(=O)Nc1ccc(-c2nc(N3CCOCC3)c3cnn(C4CCN(C(=O)c5ccccc5C)CC4)c3n2)cc1 [Compound 602, 1-methyl-3-(4-{1-[1-(2-methylbenzoyl)piperidin-4-yl]-4-morpholin-4-yl-1H-pyrazolo[3,4-d]pyrimidin-6-yl}phenyl)urea] | < 27 | 70 | 93 |
| CNC(=O)Nc1ccc(-c2nc(N3CCOCC3)c3cnn(C4CCN(C(=O)c5cccc(F)c5)CC4)c3n2)cc1 [Compound 603, 1-(4-{1-[1-(3-fluorobenzoyl)piperidin-4-yl]-4-morpholin-4-yl-1H-pyrazolo[3,4-d]pyrimidin-6-yl}phenyl)-3-methylurea] | < 27 | 80 | 88 |
| CNC(=O)Nc1ccc(-c2nc(N3CCOCC3)c3cnn(C4CCN(C(=O)c5cccc(Cl)c5)CC4)c3n2)cc1 [Compound 604, 1-(4-{1-[1-(3-chlorobenzoyl)piperidin-4-yl]-4-morpholin-4-yl-1H-pyrazolo[3,4-d]pyrimidin-6-yl}phenyl)-3-methylurea] | < 27 | 50 | 53 |
| CNC(=O)Nc1ccc(-c2nc(N3CCOCC3)c3cnn(C4CCN(C(=O)c5cccc(C(F)(F)F)c5)CC4)c3n2)cc1 [Compound 605, 1-methyl-3-[4-(4-morpholin-4-yl-1-{1-[3-(trifluoromethyl)benzoyl]piperidin-4-yl}-1H-pyrazolo[3,4-d]pyrimidin-6-yl)phenyl]urea] | 45 | 160 | 76 |
| CNC(=O)Nc1ccc(-c2nc(N3CCOCC3)c3cnn(C4CCN(C(=O)c5ccc(Br)cc5)CC4)c3n2)cc1 [Compound 606, 1-(4-{1-[1-(4-bromobenzoyl)piperidin-4-yl]-4-morpholin-4-yl-1H-pyrazolo[3,4-d]pyrimidin-6-yl}phenyl)-3-methylurea] | 52 | 180 | 34 |
| CNC(=O)Nc1ccc(-c2nc(N3CCOCC3)c3cnn(C4CCN(C(=O)c5ccc(F)cc5)CC4)c3n2)cc1 [Compound 607, 1-(4-{1-[1-(4-fluorobenzoyl)piperidin-4-yl]-4-morpholin-4-yl-1H-pyrazolo[3,4-d]pyrimidin-6-yl}phenyl)-3-methylurea] | 27 | 90 | 108 |
| CNC(=O)Nc1ccc(-c2nc(N3CCOCC3)c3cnn(C4CCN(C(=O)c5ccc(Cl)cc5)CC4)c3n2)cc1 [Compound 608, 1-(4-{1-[1-(4-chlorobenzoyl)piperidin-4-yl]-4-morpholin-4-yl-1H-pyrazolo[3,4-d]pyrimidin-6-yl}phenyl)-3-methylurea] | 52 | 400 | 42 |
| CNC(=O)Nc1ccc(-c2nc(N3CCOCC3)c3cnn(C4CCN(C(=O)c5ccc(OC)cc5)CC4)c3n2)cc1 [Compound 609, 1-(4-{1-[1-(4-methoxybenzoyl)piperidin-4-yl]-4-morpholin-4-yl-1H-pyrazolo[3,4-d]pyrimidin-6-yl}phenyl)-3-methylurea] | 45 | 350 | 54 |
